Source: US20260182575A1, “MOLECULES HAVING PESTICIDAL UTILITY AND INTERMEDIATES AND PROCESSES RELATED THERETO” (CORTEVA AGRISCIENCE LLC, priority 2022, published 2026)

Tests used:
Type in all cases: in vivo
[1] = system: Corn Earworm (Helicoverpa zea, HELIZE, CEW); assay: Bioassay 7: corn earworm, artificial diet, 96 well plate; conditions: AI alone at 0.4 wt %
Protocol: (§1) The test solutions were tested against CEW, FAW, BAW, and SBL using the following procedure: an artificial lepidopteran diet (Multispecies Lepidopteran Diet, Southland Products) was distributed in 96 well plate. Twenty μL of test solution was pipetted onto a cell in the bioassay plate. […] Each treatment was replicated 5 times for each species. Approximately five first instar CEW, FAW, BAW, or SBL larva were placed on top of the diet in each cell and was contained with a clear perforated adhesive lid. Test trays were held at approximately 25° C. and ambient relative humidity prior to grading. After five days, the number of cells where all the larvae were dead were recorded as 100% and averaged across all replicates; then the percent control was measured using Abbott's correction formula (W. S. Abbott, J. Econ. Entomol. 18 (1925), pp. 265-267) as follows:
(§2) where X=No. of live larvae on solvent check and Y=No. of live larvae on treated diet. In Table 7 the “Expected % Control” was calculated using the method described in Colby S. R., Weeds, 1967, 15, 20-22. Bioassay 8: Western Corn Rootworm (Diabrotica virgifera virgifera, DIABVI, “WCR”)

[2] = system: Soybean Looper (Chrysodeixis includens, PSEPIN, SBL); assay: Bioassay 7: soybean looper, artificial diet, 96 well plate; conditions: CL; AI alone at 0.4 wt %
Protocol: as §1, §2

[3] = system: Corn Earworm (Helicoverpa zea, HELIZE, CEW); assay: Bioassay 4: corn earworm, artificial diet, 128-cell tray; conditions: AI alone
Protocol: (§3) Stock solutions were prepared with F1 as well as for each of the active ingredients individually. Test solutions were prepared from the stock solutions. Test solutions were prepared containing F1, the individual active ingredients, and mixtures of F1 with each of the active ingredients. The test solution for F1 was prepared by adding 500 μL of the stock solution to a 25 mL glass vial, then adding 500 μL of a 9:1 mixture of acetone:water. The individual active ingredients were prepared by adding 500 μL of stock solution to a 25 mL glass vial, then adding 500 μL of a 9:1 mixture of acetone:water. The test solutions containing mixtures of F1, and the individual active ingredients were prepared by adding 500 μL of the active ingredient stock solution to a 25 mL glass vial, followed by 500 μL of the F1 stock solution, creating a test solution containing 0.04% (w/v) of F1 and 0.4% (w/v) of the active ingredient. Each test solution was serially diluted to create desired doses of test solutions (F1 at 0.04% (w/v), 0.004% (w/v), 0.0004% (w/v), 0.00004% (w/v), 0.000004% (w/v), and 0.0000004% (w/v) and active ingredients at 0.4% (w/v), 0.04% (w/v), 0.004% (w/v), 0.0004% (w/v), 0.00004% (w/v), and 0.000004% (w/v)).
(§4) The test solutions were tested against CEW, FAW, and SBL using the following procedure: an artificial lepidopteran diet (Multispecies Lepidopteran Diet, Southland Products) was distributed in 128-cell bioassay trays (Frontier Agricultural Sciences™). 50 μL of test solution was pipetted into a cell in the bioassay tray. (The test solution doses of 0.04% (w/v), 0.004% (w/v), 0.0004% (w/v), 0.00004% (w/v), 0.000004% (w/v), and 0.0000004% (w/v) translated to concentrations of 5, 0.5, 0.05, 0.005, 0.0005, and 0.00005 μg/cm^2 on the diet, respectively.) A reference treatment (solvent check) was treated with the diluent only. Each treatment was replicated 8 times for each species. A 2nd instar CEW, FAW, or SBL larva was placed on top of the diet in each cell and was contained with a clear perforated adhesive lid. Test trays were held at approximately 26° C. and ambient relative humidity (RH) prior to grading.
(§5) After 5 days, the number of live larvae were recorded from each cell and percent control was measured using Abbott's correction formula (W. S. Abbott, J. Econ. Entomol. 18 (1925), pp. 265-267) as follows:
(§6) where X=No. of live larvae on solvent check and Y=No. of live larvae on treated diet. In Table B4 the “Expected % Control” was calculated using the method described in Colby S. R., Weeds, 1967, 15, 20-22. Bioassay 5: Neotropical Brown Stink Bug (Euschistus heros, EUSCHE, “BSB”).

[4] = system: Soybean Looper (Chrysodeixis includens, PSEPIN, SBL); assay: Bioassay 4: soybean looper, artificial diet, 128-cell tray; conditions: AI alone
Protocol: as §3, §4, §5, §6

[5] = system: Fall Armyworm (Spodoptera frugiperda, LAPHFR, FAW); assay: Bioassay 4: fall armyworm, artificial diet, 128-cell tray; conditions: AI alone
Protocol: as §3, §4, §5, §6

[6] = system: Western Flower Thrips (Frankliniella occidentalis, FRANOC, WFT); assay: Bioassay 3: western flower thrips, cotton leaf disc dip; conditions: 3 days
Protocol: Stock solutions of F1 and various active ingredients were prepared initially at a concentration of 0.1 mg/mL using acetone as a diluent. Stock solutions were prepared with F1 as well as for each of the active ingredients individually. Test solutions were prepared from the stock solutions. Test solutions were prepared containing F1, the individual active ingredients, and mixtures of F1 with each of the active ingredients. The test solutions for F1 and the individual active ingredients were prepared by adding 500 μL of stock solution to a 25 mL glass vial, then adding 500 μL of acetone, followed by the addition of 9 mL water with 0.025% Tween® 20 to create a 0.0005% (w/v) solution. The test solutions containing mixtures of F1, and the individual active ingredients were prepared by adding 500 μL of the active ingredient stock solution to a 25 mL glass vial, followed by 500 μL of the F1 stock solution, then by the addition of 9 mL water with 0.025% Tween® 20 to create a test solution containing 0.0005% (w/v) F1 and 0.0005% (w/v) of the active ingredient. Each test solution was serially diluted to create desired doses of test solutions (0.0005% (w/v), 0.000125% (w/v), 0.00003125% (w/v), 0.0000078% (w/v), and 0.00000195% (w/v)).
The test solutions were tested against WFT using the following procedure: Leaf discs (2.7 cm in diameter) were cut from the true leaves of cotton plants. Leaf discs were dipped into the test solutions and shaken to ensure complete coverage of the leaf disc and then placed in Millipore® PetriSlides containing a filter paper disc. Treated leaf discs were air dried for approximately 1 hour. Each leaf disc was infested with 5 WFT (9-10-day old nymphs) by placement on each leaf disc, and the PetriSlides were capped to prevent escape. Each treatment was replicated three times and the test treatments were held at approximately 26° C. and ambient relative humidity (RH) prior to grading. Reference discs (solvent check) were treated with the diluent only. Evaluation was conducted by counting the number of live WFT under magnification 3 days after treatment. Percent control was measured using Abbott's correction formula (W. S. Abbott, J. Econ. Entomol. 18 (1925), pp. 265-267) as follows:
where X=No. of live nymphs on solvent check leaf discs and Y=No. of live nymphs on treated leaf discs. In Table B3 the “Expected % Control” was calculated using the method described in Colby S. R., Weeds, 1967, 15, 20-22. Bioassay 4: Corn Earworm (Helicoverpa zea, HELIZE, “CEW”), Fall Armyworm (Spodoptera frugiperda, LAPHFR, “FAW”), and Soybean Looper (Chrysodeixis includens, PSEPIN, “SBL”).

[7] = system: Beet Armyworm (Spodoptera exigua, LAPHEG, BAW); assay: Bioassay 7: beet armyworm, artificial diet, 96 well plate; conditions: AI alone at 0.4 wt %
Protocol: as §1, §2

[8] = AI alone at 1:1 rate to F1 0.195 (10^-6 Wt %)
[9] = AI alone at 1:1 rate to F1 3.125 (10^-6 Wt %)

| Compound | Average % Control AI [1] | Average % Control AI ([3]; 0.000004 wt %) | Average % Control AI ([3]; 0.00004 wt %) | Average % Control AI ([4]; 0.000004 wt %) | Average % Control AI ([5]; 0.000004 wt %) | Average % Control AI [7] | other results |
| --- | --- | --- | --- | --- | --- | --- | --- |
| Cc1cc(C(F)(F)F)nn1CC(=O)N1CCC(c2nc(C3=NOC(c4c(F)cccc4F)C3)cs2)CC1 (stereo not drawn) [Oxathiapiprolin] | 0.0% | – | – | – | – | – | Average % Control AI [2]: 0.0% |
| CC(c1ccc(C(F)(F)F)nc1)S(C)(=O)=NC#N (stereo not drawn) [Sulfoxaflor] | – | 0.0% | 0.0% | 12.5% | 0.0% | – | – |
| [Cu+2].[OH-].[OH-] [Copper Hydroxide] | – | – | – | – | – | – | Average % Control AI [2]: 0.0% |
| O=C(N=c1ccccn1Cc1ccc(Cl)nc1)C(F)(F)F [Flupyrimin] | – | 0.0% | 0.0% | 0.0% | 0.0% | – | Average % Control AI [6, 8]: 4.8%; Average % Control AI ([4]; 0.00004 wt %): 0.0%; Average % Control AI ([5]; 0.00004 wt %): 0.0% |
| CC1(C)CCC(Cc2ccc(Cl)cc2)C1(O)Cn1cncn1 (stereo not drawn) [Metconazole] | – | – | – | – | – | 0.0% | – |
| CC(O)(Cn1cncn1)c1ccc(Oc2ccc(Cl)cc2)cc1C(F)(F)F (stereo not drawn) [Mefentrifluconazole] | 0.0% | – | – | – | – | 0.0% | – |
| Cn1cc(C(=O)Nc2ccccc2-c2cc(F)c(F)c(F)c2)c(C(F)F)n1 [Fluxapyroxad] | – | – | – | – | – | 0.0% | – |
| Tebuconazole | 0.0% | – | – | – | – | – | – |
| CCCC1COC(Cn2cncn2)(c2ccc(Cl)cc2Cl)O1 (stereo not drawn) [Propiconazole] | 0.0% | – | – | – | – | – | – |
| Spinosad | – | 0.0% | 0.0% | 0.0% | 12.5% | – | Average % Control AI [6, 9]: 57.1% |
| CC(COc1ccc(Oc2ccccc2)cc1)Oc1ccccn1 (stereo not drawn) [Pyriproxyfen] | – | 0.0% | 0.0% | 12.5% | 12.5% | – | – |
| Tetraniliprole | – | 0.0% | 0.0% | 0.0% | 0.0% | – | Average % Control AI ([3]; 0.0004 wt %): 12.5%; Average % Control AI [6, 8]: 0.0%; Average % Control AI ([6]; AI alone at 1:1 rate to F1 0.78 (10^-6 Wt %)): 5.7%; Average % Control AI [6, 9]: 0.0%; Average % Control AI ([6]; AI alone at 1:1 rate to F1 12.5 (10^-6 Wt %)): 12.6%; Average % Control AI ([6]; AI alone at 1:1 rate to F1 50 (10^-6 Wt %)): 0.0%; Average % Control AI ([4]; 0.00004 wt %): 12.5%; Average % Control AI ([5]; 0.00004 wt %): 50.0% |
| O=C(NCCc1ncc(C(F)(F)F)cc1Cl)c1ccccc1C(F)(F)F [Fluopyram] | – | – | – | – | – | 0.0% | – |
